Experiment [1] concerns seizures induced by icv administration of kainic acid. The experiment can be described thus: Seizures induced by icv administration of kainic acid (Racine scale). In kind it is in vivo, mice. As to conditions: compound 3 5 and 50 mg/kg oral, 1 h before KA icv; effect greater with 50 mg/kg. The method, then: Young male OF-1 mice (20-25 g), supplied by the National Center for the Laboratory Animals Production (CENPALAB, Cuba) were used. The conditions of adaptation and maintenance of the animals before carrying out the experiment were similar to those developed in non-limiting Example 2. The mice were divided into 5 experimental groups (7 animals group) distributed in: a control group (PBS 2 μL, icv), a seizure control group (KA 2 μL, icv) and three groups treated orally by gastric cannulation with compound 3 at doses of 1, 5, 50 mg/kg […] and KA 2 μL, icv. Compound 3 was prepared as a suspension in 5% carboxymethylcellulose (CMC) vehicle. […]
For the icv administration of KA the mice were anesthetized with 685.71 mg/kg with chloral hydrate i.p. and placed on a dual manipulator. […] Stereotaxic coordinates for the lateral ventricle were precisely measured as: anteroposterior […], lateral±[…] and dorsoventral […] relative to bregma and ventral dura with the tooth bar at […]. A burr hole was made in the skull by automatic microperforation attached to an arm of the stereotaxic apparatus. […]
Statistical Analysis All data are expressed as the mean±standard error of the mean (SEM), and were analyzed using a one-way analysis of variance followed by Turkey's post-hoc test. […]

Experiment [2] relates to memory loss induced with the chronic use of scopolamine. Kind of experiment: Morris water maze, chronic ESC model. In kind it is in vivo, mice. The method, then:
Male C57BL/6 mice (20-25 g), supplied by the National Center for the Laboratory Animals Production (CENPALAB, Cuba) were used. During the experiment, the animals received adlibitum water and standard diet supplied by CENPALAB. All procedures were carried out in accordance with the European Commission guidelines for the use and care of laboratory animals and approved by the Committee for the Research Animals Care. The minimum number of animals and duration of observations required to obtain consistent data was used.
At the end of the adaptation period, the animals were randomly distributed according to their body weights in five experimental groups of 12 animals each. For the induction of cognitive deficit, ESC (Sigma Aldrich) was used, which was dissolved in physiological saline and administered daily intraperitoneally (ip) at a dose of 1.5 mg/kg for 2 weeks, in the morning (Park J H, et al. In J Mol Neurosci. 2016; 59 (4): 579-589). Compound 3 was prepared as a suspension, in 0.5% soluble starch (Merck Millipore), and administered orally by intragastric cannula at a daily dose of 0.1, 1, 10 mg/kg of body weight […]. The experimental groups were: […]
Morris Water Maze (MWM): Analogous to Example 2, the two-day MWM test was used to determine long-term spatial memory. […] In this way, long-term spatial memory was determined by the quotient of the escape latency values D2T1/D1V6. […]

Molecules are shown by their SMILES.

With `CSC(=S)NCCNC(=O)CCC(=O)Nc1cccc2ccccc12` [compound 3, methyl(2-{[4-(1-naphthylamino)-4-oxobutanoyl]amino}ethyl)dithiocarbamate], the “total seizure score (0-120 minutes)” value in experiment [1] is reported as “significant decrease in the total score”. The molecule also showed a maximum effect dose in experiment [2] (MWM, chronic ESC model) of 1 mg/kg. Also, the “ratio of first escape latency with hidden platform (T7) and last test with visible platform (T6)” value in experiment [2] (compound 3 1 and 10 mg/kg oral daily, ESC 1.5 mg/kg daily, 2 weeks) was “significantly decreased compared to the ESC group”.

Values taken from patent US20240299334A1, “PHARMACEUTICAL COMPOSITION OF NAPHTHALENE DERIVATIVES AS MULTI-TARGETED THERAPEUTIC AGENTS FOR THE TREATMENT OF ALZHEIMER'S DISEASE” (CENTRO DE NEUROCIENCIAS DE CUBA, CNEURO, priority 2020, published 2024).
